From PubChem BioAssay AID256 (DTP/NCI, 2004)
Values joined by “and” are separate entries in the source; they are usually repeats but may differ in a detail not shown here. Identical values can stand only once. Toxic doses and inconclusive results are not listed.

Tested on: CD2F1 mice, L1210 leukemia ip, survival T/C
Assay: NCI In Vivo Anticancer Drug Screen. Data for tumor model L1210 Leukemia (intraperitoneal) in CD2F1 (CDF1) mice
Details: higher = longer survival
How it was run: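 Tumor-bearing mice (transplanted tumor) were split into treated and vehicle control groups, and the measured endpoint of each treated group was divided by that of its vehicle controls.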

[1] = endpoint: mean survival time, dose: 25.0 mg/kg/injection, schedule: Q04DX002 (ip), vehicle: saline with Tween-80
[2] = endpoint: mean survival time, dose: 100.0 mg/kg/injection, schedule: Q01DX009 (ip), vehicle: saline sonified
[3] = endpoint: mean survival time, dose: 200.0 mg/kg/injection, schedule: Q01DX009 (ip), vehicle: saline sonified
[4] = endpoint: mean survival time, dose: 400.0 mg/kg/injection, schedule: Q01DX009 (ip), vehicle: saline sonified
[5] = endpoint: mean survival time, dose: 100.0 mg/kg/injection, schedule: Q04DX003 (ip), vehicle: saline with Tween-80
[6] = endpoint: mean survival time, dose: 200.0 mg/kg/injection, schedule: Q04DX003 (ip), vehicle: saline with Tween-80
[7] = endpoint: mean survival time, dose: 400.0 mg/kg/injection, schedule: Q04DX003 (ip), vehicle: saline with Tween-80
[8] = endpoint: mean survival time, dose: 100.0 mg/kg/injection, schedule: Q04DX002 (ip), vehicle: saline with Tween-80
[9] = endpoint: mean survival time, dose: 200.0 mg/kg/injection, schedule: Q01DX001 (ip), vehicle: saline with Tween-80
[10] = endpoint: mean survival time, dose: 200.0 mg/kg/injection, schedule: Q04DX002 (ip), vehicle: saline with Tween-80
[11] = endpoint: mean survival time, dose: 400.0 mg/kg/injection, schedule: Q01DX001 (ip), vehicle: saline with Tween-80
[12] = endpoint: mean survival time, dose: 25.0 mg/kg/injection, schedule: Q01DX009 (ip), vehicle: saline with Tween-80
[13] = endpoint: mean survival time, dose: 50.0 mg/kg/injection, schedule: Q01DX009 (ip), vehicle: saline with Tween-80
[14] = endpoint: mean survival time, dose: 100.0 mg/kg/injection, schedule: Q01DX009 (ip), vehicle: saline with Tween-80
[15] = endpoint: mean survival time, dose: 200.0 mg/kg/injection, schedule: Q01DX009 (ip), vehicle: saline with Tween-80
[16] = endpoint: mean survival time, dose: 400.0 mg/kg/injection, schedule: Q01DX009 (ip), vehicle: saline with Tween-80
[17] = endpoint: mean survival time, dose: 100.0 mg/kg/injection, schedule: Q04DX003 (ip), vehicle: saline sonified
[18] = endpoint: mean survival time, dose: 200.0 mg/kg/injection, schedule: Q01DX001 (ip), vehicle: saline
[19] = endpoint: mean survival time, dose: 100.0 mg/kg/injection, schedule: Q04DX003 (ip), vehicle: saline
[20] = endpoint: mean survival time, dose: 100.0 mg/kg/injection, schedule: Q01DX001 (ip), vehicle: saline with Tween-80

## CN=C([Se])NC
endpoint: mean survival time, dose: 3.13 mg/kg/injection, schedule: Q01DX005 (ip), vehicle: saline with Tween-80
  T/C: 108 % of control
endpoint: mean survival time, dose: 6.25 mg/kg/injection, schedule: Q01DX005 (ip), vehicle: saline with Tween-80
  T/C: 103 % of control
endpoint: mean survival time, dose: 12.5 mg/kg/injection, schedule: Q01DX005 (ip), vehicle: saline with Tween-80
  T/C: 116 % of control
endpoint: mean survival time, dose: 12.5 mg/kg/injection, schedule: Q04DX002 (ip), vehicle: saline with Tween-80
  T/C: 102 % of control
[1]
  T/C: 104 % of control

## CN1C(=O)CN=C(c2ccccn2)c2cc(Cl)ccc21
[2]
  T/C: 97 % of control
[3]
  T/C: 90 % of control
[4]
  T/C: 102 % of control

## C[CH2][Pb]([Cl])([CH2]C)[CH2]C
endpoint: mean survival time, dose: 1.56 mg/kg/injection, schedule: Q01DX009 (ip), vehicle: other
  T/C: 103 % of control
endpoint: mean survival time, dose: 3.12 mg/kg/injection, schedule: Q01DX009 (ip), vehicle: other
  T/C: 100 % of control
endpoint: mean survival time, dose: 6.25 mg/kg/injection, schedule: Q01DX009 (ip), vehicle: other
  T/C: 90 % of control

## O=CC1C2C=CCC12 (configuration not stated)
[2]
  T/C: 102 % of control
[5]
  T/C: 95 % of control
[3]
  T/C: 102 % of control
[6]
  T/C: 95 % of control
[4]
  T/C: 91 % of control
[7]
  T/C: 95 % of control

## O=c1cc(NCCCCCc2ccccc2)[nH]c(=O)[nH]1
endpoint: mean survival time, dose: 37.5 mg/kg/injection, schedule: Q01DX001 (ip), vehicle: saline with Tween-80
  T/C: 96 % of control
endpoint: mean survival time, dose: 75.0 mg/kg/injection, schedule: Q01DX001 (ip), vehicle: saline with Tween-80
  T/C: 100 % of control
endpoint: mean survival time, dose: 150.0 mg/kg/injection, schedule: Q01DX001 (ip), vehicle: saline with Tween-80
  T/C: 96 % of control

## CN1Cc2c([nH]c3ccccc23)C(O)C1 (configuration not stated)
endpoint: mean survival time, dose: 75.0 mg/kg/injection, schedule: Q01DX001 (ip), vehicle: saline
  T/C: 98 % of control
endpoint: mean survival time, dose: 150.0 mg/kg/injection, schedule: Q01DX001 (ip), vehicle: saline
  T/C: 106 % of control

## CN1CC2(Cc3ccccc3)c3ccccc3NC2(NC(=O)CCl)C1=O (configuration not stated)
[1]
  T/C: 87 % of control
endpoint: mean survival time, dose: 50.0 mg/kg/injection, schedule: Q04DX002 (ip), vehicle: saline with Tween-80
  T/C: 95 % of control
[8]
  T/C: 91 % of control
[9]
  T/C: 92 % of control
[10]
  T/C: 89 % of control
[11]
  T/C: 96 % of control

## CCCCN(CCCC)CCCN1C(=O)c2ccccc2C1=O
endpoint: mean survival time, dose: 1.9 mg/kg/injection, schedule: Q01DX009 (ip), vehicle: saline
  T/C: 97 % of control
endpoint: mean survival time, dose: 3.7 mg/kg/injection, schedule: Q01DX009 (ip), vehicle: saline
  T/C: 107 % of control
endpoint: mean survival time, dose: 7.5 mg/kg/injection, schedule: Q01DX009 (ip), vehicle: saline
  T/C: 100 % of control
endpoint: mean survival time, dose: 15.0 mg/kg/injection, schedule: Q01DX009 (ip), vehicle: saline
  T/C: 87 % of control
endpoint: mean survival time, dose: 30.0 mg/kg/injection, schedule: Q01DX009 (ip), vehicle: saline
  T/C: 89 % of control and 105 % of control

## O=C(O)C1Cc2nc[nH]c2CN1CO (configuration not stated)
endpoint: mean survival time, dose: 12.5 mg/kg/injection, schedule: Q01DX009 (ip), vehicle: saline with Tween-80
  T/C: 100 % of control
[12]
  T/C: 100 % of control and 102 % of control
[13]
  T/C: 100 % of control
[14]
  T/C: 104 % of control and 109 % of control
[15]
  T/C: 108 % of control
[16]
  T/C: 108 % of control and 109 % of control

## COc1cc2c(cc1OC)-c1cc3cc(OC)c(OC)cc3c(C)[n+]1CC2 (tested in a mixture with another compound)
[17]
  T/C: 103 % of control

## O=C1C(Sc2ccc3ccccc3c2)=C(Sc2ccc3ccccc3c2)C(=O)c2ccccc21
endpoint: mean survival time, dose: 25.0 mg/kg/injection, schedule: Q04DX003 (ip), vehicle: saline with Tween-80
  T/C: 94 % of control
endpoint: mean survival time, dose: 50.0 mg/kg/injection, schedule: Q04DX003 (ip), vehicle: saline with Tween-80
  T/C: 94 % of control

## CC(C)NS(=O)(=O)c1ccccc1
[5]
  T/C: 97 % of control
[6]
  T/C: 96 % of control
[7]
  T/C: 99 % of control

## O=S1(=O)CCC(C2CCCCC2)C1 (configuration not stated)
endpoint: mean survival time, dose: 100.0 mg/kg/injection, schedule: Q01DX001 (ip), vehicle: saline
  T/C: 95 % of control
[18]
  T/C: 98 % of control
endpoint: mean survival time, dose: 400.0 mg/kg/injection, schedule: Q01DX001 (ip), vehicle: saline
  T/C: 106 % of control

## CCn1c(C)cc(=O)c2ccccc21
[8]
  T/C: 105 % of control
[10]
  T/C: 94 % of control

## Cc1ccc(C(=O)Nc2ccc(S(=O)(=O)O)c3cc(S(=O)(=O)O)cc(S(=O)(=O)O)c23)cc1NC(=O)c1cccc(NC(=O)Nc2cccc(C(=O)Nc3cc(C(=O)Nc4ccc(S(=O)(=O)O)c5cc(S(=O)(=O)O)cc(S(=O)(=O)O)c45)ccc3C)c2)c1
endpoint: median survival time, dose: 12.5 mg/kg/injection, schedule: Q01DX005 (ip), vehicle: saline
  T/C: 101 % of control
endpoint: median survival time, dose: 25.0 mg/kg/injection, schedule: Q01DX005 (ip), vehicle: saline
  T/C: 101 % of control
endpoint: median survival time, dose: 50.0 mg/kg/injection, schedule: Q01DX005 (ip), vehicle: saline
  T/C: 116 % of control

## C[S+](C)CCC1NC(=O)NC1=O (configuration not stated)
[5]
  T/C: 107 % of control
[19]
  T/C: 98 % of control
[6]
  T/C: 102 % of control
endpoint: mean survival time, dose: 200.0 mg/kg/injection, schedule: Q04DX003 (ip), vehicle: saline
  T/C: 102 % of control
[7]
  T/C: 93 % of control

## CCC(C(=O)O)c1ccccc1 (configuration not stated)
[17]
  T/C: 97 % of control
endpoint: mean survival time, dose: 200.0 mg/kg/injection, schedule: Q04DX003 (ip), vehicle: saline sonified
  T/C: 101 % of control

## O/N=C1\CCCCC1C(O)(/C(=N/O)c1ccccc1)c1ccccc1 (configuration not stated)
[20]
  T/C: 96 % of control
[9]
  T/C: 86 % of control
[11]
  T/C: 91 % of control

## OC(COc1ccc(Cl)cc1)COc1ccc(Cl)cc1
endpoint: mean survival time, dose: 25.0 mg/kg/injection, schedule: Q01DX001 (ip), vehicle: saline with Tween-80
  T/C: 94 % of control
endpoint: mean survival time, dose: 50.0 mg/kg/injection, schedule: Q01DX001 (ip), vehicle: saline with Tween-80
  T/C: 94 % of control
[20]
  T/C: 105 % of control

## CSC(=S)N/N=C/c1ccccn1
[13]
  T/C: 97 % of control
[14]
  T/C: 98 % of control
[5]
  T/C: 103 % of control
[6]
  T/C: 94 % of control

## O=C(O)c1ccccc1C(=O)Nc1ccc([N+](=O)[O-])cc1
[5]
  T/C: 98 % of control
[7]
  T/C: 91 % of control

## CCCCN(CCCC)CCCN(CCCOS(C)(=O)=O)CCCOS(C)(=O)=O
endpoint: mean survival time, dose: 12.0 mg/kg/injection, schedule: Q01DX001 (ip), vehicle: saline
  T/C: 110 % of control
endpoint: mean survival time, dose: 12.5 mg/kg/injection, schedule: Q01DX009 (ip), vehicle: saline
  T/C: 121 % of control
endpoint: mean survival time, dose: 12.5 mg/kg/injection, schedule: Q04DX003 (ip), vehicle: saline
  T/C: 110 % of control
endpoint: mean survival time, dose: 25.0 mg/kg/injection, schedule: Q01DX001 (ip), vehicle: saline
  T/C: 114 % of control
endpoint: mean survival time, dose: 25.0 mg/kg/injection, schedule: Q04DX003 (ip), vehicle: saline
  T/C: 117 % of control
endpoint: mean survival time, dose: 50.0 mg/kg/injection, schedule: Q01DX009 (ip), vehicle: saline
  T/C: 162 % of control
endpoint: mean survival time, dose: 100.0 mg/kg/injection, schedule: Q01DX009 (ip), vehicle: saline
  T/C: 102 % of control
[19]
  T/C: 160 % of control
[18]
  T/C: 90 % of control

## O=C(NC(=S)Nc1cc(Cl)ccc1O)c1cccc(Br)c1
[20]
  T/C: 86 % of control and 89 % of control
[14]
  T/C: 96 % of control and 101 % of control
[8]
  T/C: 89 % of control and 103 % of control
[5]
  T/C: 91 % of control
[9]
  T/C: 86 % of control
[15]
  T/C: 97 % of control and 98 % of control
[10]
  T/C: 89 % of control and 100 % of control
[6]
  T/C: 96 % of control
[11]
  T/C: 86 % of control
[16]
  T/C: 116 % of control and 101 % of control
endpoint: mean survival time, dose: 400.0 mg/kg/injection, schedule: Q04DX002 (ip), vehicle: saline with Tween-80
  T/C: 94 % of control and 95 % of control
[7]
  T/C: 95 % of control

## CCOC(=O)Cc1cnc(SC)nc1Nc1ccc(C)cc1
[20]
  T/C: 97 % of control
[9]
  T/C: 108 % of control
[11]
  T/C: 106 % of control

## C[n+]1c(O)c(C(=O)CCl)n2cc([N+](=O)[O-])ccc21
endpoint: mean survival time, dose: 12.5 mg/kg/injection, schedule: Q01DX009 (ip), vehicle: acetone
  T/C: 95 % of control
endpoint: mean survival time, dose: 25.0 mg/kg/injection, schedule: Q01DX009 (ip), vehicle: acetone
  T/C: 101 % of control
endpoint: mean survival time, dose: 50.0 mg/kg/injection, schedule: Q01DX009 (ip), vehicle: acetone
  T/C: 90 % of control

## O=C1/C(=C/c2ccccc2)CCC/C1=C\c1ccccc1
[12]
  T/C: 94 % of control
[13]
  T/C: 94 % of control
[14]
  T/C: 89 % of control

## CC1=CC=CC(C)(C(Cl)Cl)C1=O (configuration not stated)
[13]
  T/C: 97 % of control
[14]
  T/C: 89 % of control
[5]
  T/C: 96 % of control
[6]
  T/C: 103 % of control
endpoint: mean survival time, dose: 1200.0 mg/kg/injection, schedule: Q01DX009 (ip), vehicle: saline with Tween-80
  T/C: 93 % of control
